Experimental data reported in patent publication US8653146B2, “Method for treating Th17 inflammatory disease through inhibition of vascular endothelial growth factor receptors and pharmaceutical composition therefor” (Postech Academy-Industry Foundation, priority 2009, dated 2014).

Tests used:
Format in all cases: in vivo, C57BL/6 mice
[1] = test system: immune cells isolated from local lymph nodes; assay: Cytokine secretion by local lymph node immune cells in response to allergen (OVA) stimulus, ELISA; details: SU5416 upon sensitization; six hours after three OVA challenges (day 21); FIGS. 10b and 10c
Description: To construct asthma animal models, C57BL/6 (female, 6 weeks old) mice were divided into groups, each consisting of five mice and sensitized with 75 μg of ovalbumn (OVA) as an allergen and 10 μg of an endotoxin (lipopolysaccharide, LPS) as an adjuvant via an intranasal route on Day 0, 1, 2 and 7. Some mice in experiment groups were intraperitoneally injected with SU5416 (purchased from Sigma) at a dose of 1 mg/kg or 10 mg/kg, or anti-Flk-1 (purchased from R&D systems) at a dose of 0.1, 1 or 10 μg 30 min before the intranasal administration of OVA and LPS. […]
(§1) In this regard, the mice were anesthetized by intraperitoneal injection of a mixture of ketamin and xylazine and allowed to undergo thoracotomy to expose the trachea into which a catheter was then inserted, followed by ligation. The airway was washed by injecting 1 mL of sterile saline twice to obtain bronchoalveolar lavage (BAL) fluid. For the analysis of T lymphocytes in pulmonary tissues, cells were extracted from the local lymph nodes of the lung excised.
The cells obtained from the lymph nodes were incubated for 72 hours in RPMI (Gibco) supplemented with 100 μg/ml OVA, 10% FBS, and an antibiotic before respective cytokines responsible for Th1-, Th17- and Th2-mediated inflammatory responses were quantified using ELISA. […]

[2] = test system: Th1- and Th17-mediated immune responses; assay: Overall conclusion on lung inflammation and Th1/Th17 immune responses in asthma animal models
Description: VEGFR inhibitors were assayed for inhibitory activity in asthma animal models suffering from Th17-mediated inflammation.
(§2) To construct asthma animal models, C57BL/6 (female, 6 weeks old) mice were divided into groups, each consisting of five mice and sensitized with 75 μg of ovalbumn (OVA) as an allergen and 10 μg of an endotoxin (lipopolysaccharide, LPS) as an adjuvant via an intranasal route on Day 0, 1, 2 and 7. Some mice in experiment groups were intraperitoneally injected with SU5416 (purchased from Sigma) at a dose of 1 mg/kg or 10 mg/kg, or anti-Flk-1 (purchased from R&D systems) at a dose of 0.1, 1 or 10 μg 30 min before the intranasal administration of OVA and LPS. On days 14, 15, 21 and 22, OVA (50 μg) was intranasally administered to the animals after anesthesia.
as §1, with “The mice were examined for pulmonary inflammation 6 hours (day 22) and 48 hours (day 24) after the last OVA administration. In” for “In”

[3] = test system: inflammatory cells in BAL fluid; assay: Inflammatory cell count in BAL fluid of OVA/LPS-sensitized asthma animal models; details: SU5416 1 mg/kg or 10 mg/kg i.p. 30 min before OVA/LPS sensitization (days 0, 1, 2, 7); 48 hours after last OVA injection (day 24); FIG. 9
Description: as §2
The mice were examined for pulmonary inflammation 6 hours (day 22) and 48 hours (day 24) after the last OVA administration. […]
(§3) The BAL fluid was centrifuged at 4° C. at 3000 rpm for 10 min and the cell pellet thus formed was suspended in PBS (phosphate buffered saline). […] In a 1000× magnified sight under an optical microscope, 300 or more inflammatory cells were observed and classified into macrophages, lymphocytes, neutrophils, and eosinophils which were then counted. In addition, levels of gamma interferon, responsible for Th1 inflammatory response, and IL-17 and IL-6, both responsible for Th17 inflammatory response, in the BAL fluid were quantified by ELISA. […]

[4] = test system: gamma interferon, IL-17 and IL-6 in BAL fluid; assay: Cytokine levels (gamma interferon, IL-17, IL-6) in BAL fluid of OVA/LPS asthma animal models by ELISA
Description: as §2
The mice were examined for pulmonary inflammation 6 hours (day 22) and 48 hours (day 24) after the last OVA administration. In this regard, the mice were anesthetized by intraperitoneal injection of a mixture of ketamin and xylazine and allowed to undergo thoracotomy to expose the trachea into which a catheter was then inserted, followed by ligation. The airway was washed by injecting 1 mL of sterile saline twice to obtain bronchoalveolar lavage (BAL) fluid. […]
as §3
Mice in the experimental groups were intraperitoneally injected with 0.1, 1.0 and 10 μg of a monoclonal antibody against VEGFR-2 (anti-Flk-1, R&D Systems) while mice in the control group were intraperitoneally injected with PBS. […] BAL fluid obtained 24 hours after the sensitization (day 1) was quantitatively analyzed for inflammatory cell and IL-6 levels and the results are shown in FIG. 13.

[5] = SU5416 upon sensitization, six hours after three rounds of OVA challenge (day 21), FIG. 10a

Cc1cc(C)c(/C=C2\C(=O)Nc3ccccc32)[nH]1 [SU5416, Semaxanib]
IL-17 secreted by local lymph node immune cells in response to allergen stimulus [1]: significantly decreased level
gamma interferon secreted by local lymph node immune cells in response to allergen stimulus [1]: significantly decreased level
inflammation in the lung ([2]; summary of Examples 1 and 2): excellently suppress inflammation in the lung
Th1- and Th17-mediated immune responses ([2]; summary of Examples 1 and 2, immunological perspective): suppressive of Th1- and Th17-mediated immune responses
inflammatory cell count in BAL fluid [3]: reduced in a dose-dependent manner
IL-6 level in BAL fluid ([4]; SU5416 10 mg/kg, 6 hours after three rounds of sensitization with OVA and LPS, vs OVA/LPS_sham, FIG. 11): lower amounts of IL-6 than did the control
level of IL-17 in BAL fluid [4, 5]: significantly decrease
level of gamma interferon in BAL fluid [4, 5]: significantly decrease
